Experimental data reported in patent US20250140406A1, “CLASSIFYING TUMORS AND PREDICTING RESPONSIVENESS” (Oncocyte Corporation, priority 2022, published 2025).

What was measured:
[1] = system: cancer cell lines, DetermaIO classes; assay: Association of PRISM compound sensitivity with DetermaIO (DTIO) cell line classes; type: cell-based; details: association of compound sensitivity with DetermaIO classes; for DTIO Corr test: test data set; for DTIO Corr train: training data set
[2] = system: cancer cell lines classified IM, MSL, M; assay: PRISM screen compound sensitivity correlated with IM, MSL and M subtype of cell lines (101 gene signature); type: cell-based; details: 101 gene signature
[3] = subtype (IM, MSL or M) with which compound sensitivity is negatively correlated, training cell set (371 cell lines)
[4] = subtype (IM, MSL or M) assigned to the compound by negative correlation of PRISM sensitivity with subtype, training cell set (371 cell lines)
[5] = subtype (IM, MSL or M) with which PRISM compound sensitivity is negatively correlated, training cell set

SMILES | DTIO Corr test [1] | DTIO Corr train [1] | also measured
C=CC(=O)Nc1cc(Nc2nccc(-c3cn(C)c4ccccc34)n2)c(OC)cc1N(C)CCN(C)C [K42805893] | 0.0753 | −0.06781 | 
C[C@@H]1COC(Nc2ccc3ncnc(Nc4ccc(OCc5nccs5)c(Cl)c4)c3c2)=N1 [K46386702] | −0.03109 | −0.05992 | 
COc1cc2nccc(Oc3ccc(NC(=O)Nc4ccc(F)cc4F)c(F)c3)c2cc1OC [K47150025] | 0.03732 | 0.02512 | 
NC(=O)c1cccc2cn(-c3ccc([C@@H]4CCCNC4)cc3)nc12 [K54955827] | −0.03477 | 0.03577 | 
COc1cc(N2CCC(N3CCN(C)CC3)CC2)ccc1Nc1ncc(Cl)c(Nc2ccccc2P(C)(C)=O)n1 [K56981171] | 0.04024 | −0.1728 | 
OCCn1cc(-c2ccc3c(c2)CC/C3=N\O)c(-c2ccncc2)n1 [K67578145] | 0.1581 | 0.1101 | 
O=c1cc(-c2ccccc2)oc2cc(O)c(O)c(O)c12 [K72327355] | −0.04244 | −0.1442 | 
Nc1nccc2c1ncn2C1C=C(CO)C(O)C1O (centres unmarked) [K77791657] | −0.05245 | −0.1309 | 
CC[C@@]1(O)C(=O)OCc2c1cc1n(c2=O)Cc2cc3c([N+](=O)[O-])cccc3nc2-1 [K79821389] | −0.06417 | −0.1178 | 
C=C1/C(=C\C=C2/CCC[C@]3(C)[C@@H]([C@H](C)OCCC(C)(C)O)CC[C@@H]23)C[C@@H](O)C[C@@H]1O [K81332461] | −0.00506 | −0.07504 | 
Cn1c(Nc2ccc(C(F)(F)F)cc2)nc2cc(Oc3ccnc(-c4ncc(C(F)(F)F)[nH]4)c3)ccc21 [K93123848] | 0.1916 | 0.1011 | 
O=C1[C@H](Cc2ccc(O)cc2)N2C(=O)CCN(C(=O)NCc3ccccc3)[C@H]2CN1Cc1cccc2ccccc12 [K94455792] | 0.1635 | 0.1783 | 
Nc1ccc(S(N)(=O)=O)cc1 [sulfanilamide] |  |  | TNBCType train [2, 3]: MSL
CC(=O)N1N=C(c2ccc(N)cc2)c2cc3c(cc2C[C@H]1C)OCO3 [talampanel] |  |  | TNBCType train [2, 4]: MSL
COc1ccc2[nH]c([S+]([O-])Cc3ncc(C)c(OC)c3C)nc2n1 (centres unmarked) [tenatoprazole] |  |  | TNBCType train [2, 3]: MSL
CN(C)C(=S)SC(=S)N(C)C [tetramethylthiuram-monosulfide] |  |  | TNBCType train [2, 5]: MSL
O=C(Cn1c(=O)sc2ccc(Cl)cc21)N1CCN(CCO)CC1 [tiaramide] |  |  | TNBCType train [2, 5]: MSL
CCCSc1nc(N[C@@H]2C[C@H]2c2ccc(F)c(F)c2)c2nnn([C@@H]3C[C@H](OCCO)[C@@H](O)[C@H]3O)c2n1 [ticagrelor] |  |  | TNBCType train [2, 5]: MSL
N#Cc1cc(-c2n[nH]c(-c3ccncc3)n2)ccn1 [topiroxostat] |  |  | TNBCType train [2, 4]: MSL
C[C@]12CC[C@H]3[C@@H](CC[C@@]45O[C@@H]4C(O)=C(C#N)C[C@]35C)[C@@H]1CC[C@@H]2O [trilostane] |  |  | TNBCType train [2, 3]: MSL
COc1cc2c3cc1Oc1cc(ccc1O)C[C@@H]1c4c(cc(OC)c(O)c4Oc4ccc(cc4)C[C@@H]3N(C)CC2)CC[N+]1(C)C [tubocurarine] |  |  | TNBCType train ([2]; subtype (IM, MSL or M) the PRISM compound sensitivity is associated with, training cell set (371 cell lines)): MSL
CC(C)(C)c1ccc(S(=O)(=O)Nc2ccc(Cl)cc2C(=O)c2cc[n+]([O-])cc2)cc1 [vercirnon] |  |  | TNBCType train [2, 5]: MSL
COc1ccc(N(C)c2nc(C)nc3ccccc23)cc1 [verubulin] |  |  | TNBCType train [2, 5]: MSL
CC[C@]1(O)C[C@@H]2CN(CCc3c([nH]c4ccccc34)[C@@](C(=O)OC)(c3cc4c(cc3OC)N(C)[C@H]3[C@@](O)(C(=O)OC)[C@H](OC(C)=O)[C@]5(CC)C=CCN6CC[C@]43[C@@H]65)C2)C1 [vinblastine] |  |  | TNBCType train [2, 3]: MSL
CC[C@]1(O)C[C@@H]2CN(CCc3c([nH]c4ccccc34)[C@@](C(=O)OC)(c3cc4c(cc3OC)N(C)[C@H]3[C@@](O)(C(N)=O)[C@H](O)[C@]5(CC)C=CCN6CC[C@]43[C@@H]65)C2)C1 [vindesine] |  |  | TNBCType train [2, 4]: MSL
CC(c1cc2ccccc2s1)N(O)C(N)=O (centres unmarked) [zileuton] |  |  | TNBCType train [2, 3]: MSL
